Measured values as given in patent US7189680B2, “5-halo-6-aryl[1,2,4]triazolo[1,5-a]pyrimidin-7-amines” (Bayer Cropscience AG, priority 2001, dated 2007).

assay: logP determination by HPLC (EEC directive 79/831 Annex V. A8); format: physicochemical; conditions: HPLC gradient method, acetonitrile/0.1% aqueous phosphoric acid; Table 1
Description: *) The logP values were determined in accordance with EEC directive 79/831 Annex V. A8 by HPLC (gradient method, acetonitrile/0.1% aqueous phosphoric acid)

| SMILES | logP* |
| --- | --- |
| OCCNNc1c(-c2c(F)cc(F)cc2F)c(Cl)nc2ncnn12 [Example 33] | 1.68 |
| C=CCONc1c(-c2c(F)c(F)c(F)c(F)c2F)c(Cl)nc2ncnn12 [Example 74] | 2.89 |
| CC(C)CN(N)c1c(-c2c(F)cccc2F)c(Cl)nc2ncnn12 [Example 170] | 2.72 |
| Fc1c(F)c(F)c(-c2c(Cl)nc3ncnn3c2NOCc2cccc(C(F)(F)F)c2)c(F)c1F [Example 118] | 3.72 |
| CCCCONc1c(-c2c(F)cccc2F)c(Cl)nc2ncnn12 [Example 109] | 2.83 |
| Fc1c(F)c(F)c(-c2c(Cl)nc3ncnn3c2NOC2CCCCO2)c(F)c1F (stereo not shown) [Example 76] | 3.04 |
| CNN(C)c1c(-c2c(F)cc(F)cc2F)c(Cl)nc2ncnn12 [Example 18] | 2.33 |
| CC(C)=NN(CC1CCCCC1)c1c(-c2c(F)cc(F)cc2F)c(Cl)nc2ncnn12 [Example 26] | 4.5 |
| NN(CC1CCC1)c1c(-c2c(F)cc(F)cc2F)c(Cl)nc2ncnn12 [Example 169] | 3.06 |
| CC(C)(C)NNc1c(-c2c(F)cc(F)cc2F)c(Cl)nc2ncnn12 [Example 21] | 2.86 |
| Fc1ccc(CONc2c(-c3c(F)cccc3F)c(Cl)nc3ncnn23)cc1 [Example 107] | 2.86 |
| CC=NN(CC1CC1(Cl)Cl)c1c(-c2c(F)cc(F)cc2F)c(Cl)nc2ncnn12 (stereo not shown) [Example 167] | 3.72 |
| Fc1cc(F)c(-c2c(Cl)nc3ncnn3c2NOCc2nc(-c3ccccc3)cs2)c(F)c1 [Example 9] | 3.21 |
| Fc1cc(F)c(-c2c(Cl)nc3ncnn3c2NNCC2CCCO2)c(F)c1 (stereo not shown) [Example 52] | 2.44 |
| NN(CC1CCCO1)c1c(-c2c(F)cc(F)cc2F)c(Cl)nc2ncnn12 (stereo not shown) [Example 127] | 2.55 |
| CCC(C)N(N)c1c(-c2cc(C(F)(F)F)ccc2Cl)c(Cl)nc2ncnn12 (stereo not shown) [Example 146] | 3.99 |
| CCC(C)ONc1c(-c2c(F)cc(F)cc2F)c(Cl)nc2ncnn12 (stereo not shown) [Example 41] | 2.86 |
| Fc1ccccc1-c1c(Cl)nc2ncnn2c1NOCc1ccc(Cl)cc1Cl [Example 97] | 3.6 |
| CCC(C)ONc1c(-c2c(F)c(F)c(F)c(F)c2F)c(Cl)nc2ncnn12 (stereo not shown) [Example 73] | 3.33 |
| Fc1cc(F)c(-c2c(Cl)nc3ncnn3c2NOCc2ccccc2Cl)c(F)c1 [Example 81] | 3.22 |
| NN(c1c(-c2c(F)cc(F)cc2F)c(Cl)nc2ncnn12)C1CCCC1 [Example 130] | 3.07 |

| SMILES | logP* |
| --- | --- |
| C=CCONc1c(-c2c(F)cc(F)cc2F)c(Cl)nc2ncnn12 [Example 42] | 2.48 |
| Fc1cccc(F)c1-c1c(Cl)nc2ncnn2c1NOCc1c(Cl)cccc1Cl [Example 110] | 3.2 |
| CC(C)(O)CNNc1c(-c2c(F)cc(F)cc2F)c(Cl)nc2ncnn12 [Example 53] | 2.09 |
| CC(NNc1c(-c2c(F)cc(F)cc2F)c(Cl)nc2ncnn12)C1CC1 (stereo not shown) [Example 25] | 3.02 |
| Fc1c(F)c(F)c(-c2c(Cl)nc3ncnn3c2NOCc2cc(Cl)cc(Cl)c2)c(F)c1F [Example 113] | 4.07 |
| CCC(C)NNc1c(-c2cc(C(F)(F)F)ccc2Cl)c(Cl)nc2ncnn12 (stereo not shown) [Example 149] | 3.47 |
| Fc1ccccc1-c1c(Cl)nc2ncnn2c1NOCc1cccc(Cl)c1 [Example 60] | 3.15 |
| CONc1c(-c2ccccc2F)c(Cl)nc2ncnn12 [Example 67] | 1.89 |
| Fc1cccc(F)c1-c1c(Cl)nc2ncnn2c1NOCc1cc(Cl)cc(Cl)c1 [Example 104] | 3.63 |
| CC1(NNc2c(-c3c(F)cc(F)cc3F)c(Cl)nc3ncnn23)CCCCC1 [Example 27] | 3.68 |
| CC(C)CN(N)c1c(-c2cc(C(F)(F)F)ccc2C(F)(F)F)c(Cl)nc2ncnn12 [Example 137] | 3.57 |
| CCC(C)ONc1c(-c2ccccc2F)c(Cl)nc2ncnn12 (stereo not shown) [Example 63] | 2.69 |
| CON(CC(C)C)c1c(-c2c(F)cc(F)cc2F)c(Cl)nc2ncnn12 [Example 152] | 3.78 |
| Fc1cccc(F)c1-c1c(Cl)nc2ncnn2c1NOC1CCCCO1 (stereo not shown) [Example 51] | 2.43 |
| CC(C)CN(N)c1c(-c2cc(C(F)(F)F)ccc2Cl)c(Cl)nc2ncnn12 [Example 140] | 3.51 |
| Fc1cc(F)c(-c2c(Cl)nc3ncnn3c2NNCCN2CCOCC2)c(F)c1 [Example 54] | 1.14 |
| CC(C)CONc1c(-c2c(F)cc(F)cc2F)c(Cl)nc2ncnn12 [Example 79] | 3 |
| CC(C)CN(N)c1c(-c2c(F)cc(F)cc2F)c(Cl)nc2ncnn12 [Example 131] | 2.91 |
| CC(C)ONc1c(-c2ccccc2F)c(Cl)nc2ncnn12 [Example 98] | 2.42 |
| COC(=O)N(C)Nc1c(-c2ccccc2F)c(Cl)nc2ncnn12 [Example 93] | 1.8 |
| CC(C)=NN(CC(C)C)c1c(-c2c(F)cc(F)cc2F)c(Cl)nc2ncnn12 [Example 158] | 3.63 |

| SMILES | logP* |
| --- | --- |
| CCC(C)NNc1c(-c2c(Cl)cccc2Cl)c(Cl)nc2ncnn12 (stereo not shown) [Example 154] | 3.14 |
| CCONc1c(-c2ccccc2F)c(Cl)nc2ncnn12 [Example 57] | 2.13 |
| Fc1c(F)c(F)c(-c2c(Cl)nc3ncnn3c2NOCc2ccc(Cl)cc2Cl)c(F)c1F [Example 114] | 4.02 |
| Fc1ccccc1-c1c(Cl)nc2ncnn2c1NOCc1c(Cl)cccc1Cl [Example 101] | 3.3 |
| CC(=O)NN(CC(C)C)c1c(-c2c(F)cc(F)cc2F)c(Cl)nc2ncnn12 [Example 157] | 2.25 |
| Fc1ccccc1-c1c(Cl)nc2ncnn2c1NOCc1ccc(C(F)(F)F)cc1 [Example 58] | 3.31 |
| C#CCN(N)c1c(-c2c(F)cc(F)cc2F)c(Cl)nc2ncnn12 [Example 142] | 2.22 |
| CN(C)Nc1c(-c2ccccc2F)c(Cl)nc2ncnn12 [Example 87] | 2.26 |
| Cc1ccc(CONc2c(-c3c(F)cc(F)cc3F)c(Cl)nc3ncnn23)cc1 [Example 13] | 3.25 |
| CCCCONc1c(-c2ccccc2F)c(Cl)nc2ncnn12 [Example 100] | 2.85 |
| CC(C)CONc1c(-c2ccccc2F)c(Cl)nc2ncnn12 [Example 56] | 2.79 |
| CCC(C)NNc1c(-c2cccc3c2OC(F)(F)O3)c(Cl)nc2ncnn12 (stereo not shown) [Example 151] | 3.21 |
| Fc1ccccc1-c1c(Cl)nc2ncnn2c1NOCc1ccc(Cl)cc1 [Example 61] | 3.16 |
| CC(C)(C)ONc1c(-c2c(F)c(F)c(F)c(F)c2F)c(Cl)nc2ncnn12 [Example 75] | 3.24 |
| Fc1cc(F)c(-c2c(Cl)nc3ncnn3c2NNC2CCCCC2)c(F)c1 [Example 35] | 3.28 |
| CN(O)c1c(-c2c(F)cc(F)cc2F)c(Cl)nc2ncnn12 [Example 123] | 1.99 |
| CC(=NNc1c(-c2c(F)cc(F)cc2F)c(Cl)nc2ncnn12)C(F)(F)F [Example 165] | 3.07 |
| CC(C)CN(N)c1c(-c2ccc(C(F)(F)F)cc2F)c(Cl)nc2ncnn12 [Example 135] | 3.43 |
| CCNNc1c(-c2ccccc2F)c(Cl)nc2ncnn12 [Example 89] | 2.06 |
| CCCN(N)c1c(-c2c(F)cc(F)cc2F)c(Cl)nc2ncnn12 [Example 20] | 2.58 |
| Fc1cc(F)c(-c2c(Cl)nc3ncnn3c2NOC2CCCC2)c(F)c1 [Example 14] | 2.94 |

| SMILES | logP* |
| --- | --- |
| CC(C)CN(N)c1c(-c2c(Cl)c(F)cc(C(F)(F)F)c2Cl)c(Cl)nc2ncnn12 [Example 126] | 2.58 |
| CONc1c(-c2c(F)cc(F)cc2F)c(Cl)nc2ncnn12 [Example 31] | 2.12 |
| NN(c1c(-c2c(F)cc(F)cc2F)c(Cl)nc2ncnn12)C1CCCCCC1 [Example 141] | 3.66 |
| Fc1c(F)c(F)c(-c2c(Cl)nc3ncnn3c2NOCc2cccc(Cl)c2)c(F)c1F [Example 117] | 3.64 |
| CCC(C)N(N)c1c(-c2c(F)cc(F)cc2F)c(Cl)nc2ncnn12 (stereo not shown) [Example 139] | 2.93 |
| Fc1cc(F)c(-c2c(Cl)nc3ncnn3c2NNCC(F)(F)C(F)F)c(F)c1 [Example 29] | 2.58 |
| Fc1ccc(CONc2c(-c3ccccc3F)c(Cl)nc3ncnn23)cc1 [Example 62] | 2.82 |
| Fc1cccc(F)c1-c1c(Cl)nc2ncnn2c1NOCc1cccc(C(F)(F)F)c1 [Example 108] | 3.3 |
| Fc1ccccc1-c1c(Cl)nc2ncnn2c1NOCc1cccc(C(F)(F)F)c1 [Example 99] | 3.34 |
| CN(O)c1c(-c2c(F)cccc2F)c(Cl)nc2ncnn12 [Example 124] | 2.19 |
| C=CCONc1c(-c2c(F)cccc2F)c(Cl)nc2ncnn12 [Example 50] | 2.28 |
| Fc1ccc(CONc2c(-c3c(F)cc(F)cc3F)c(Cl)nc3ncnn23)cc1 [Example 83] | 2.99 |
| CC(C)CONc1c(-c2c(F)c(F)c(F)c(F)c2F)c(Cl)nc2ncnn12 [Example 69] | 3.42 |
| Fc1cc(F)c(-c2c(Cl)nc3ncnn3c2NNCC(F)(F)F)c(F)c1 [Example 19] | 2.47 |
| CC(C)CN(N)c1c(-c2cccc(C(F)(F)F)c2Cl)c(Cl)nc2ncnn12 [Example 163] | 3.45 |
| CON(C)c1c(-c2c(F)c(F)c(F)c(F)c2F)c(Cl)nc2ncnn12 [Example 77] | 3.06 |
| Fc1cccc(F)c1-c1c(Cl)nc2ncnn2c1NOCc1ccc(C(F)(F)F)cc1 [Example 105] | 3.32 |
| CCCCN(N)c1c(-c2c(F)cc(F)cc2F)c(Cl)nc2ncnn12 [Example 132] | 2.96 |

same assay, conditions: HPLC gradient method, acetonitrile/0.1% aqueous phosphoric acid; Table 1; read-out: logP*

| SMILES | chromatographic logP |
| --- | --- |
| NN(CC1CCCCC1)c1c(-c2c(F)cc(F)cc2F)c(Cl)nc2ncnn12 [Example 22] | 3.67 |
| C=CCNNc1c(-c2c(F)cc(F)cc2F)c(Cl)nc2ncnn12 [Example 24] | 2.48 |

same assay, conditions: HPLC; preparation examples; read-out: HPLC: logP

| SMILES | chromatographic logP |
| --- | --- |
| CC(C)(C)ONc1c(-c2c(F)cccc2F)c(Cl)nc2ncnn12 [Example 2, 7-(tert-butoxyamino)-5-chloro-6-(2,6-difluorophenyl)[1,2,4)triazolo[1,5-a]pyrimidine] | 2.59 |

same assay, conditions: Table 2, carbamates of formula (VIII)

| SMILES | logP |
| --- | --- |
| CCOC(=O)N(CC(C)C)OC [Example 178] | 2.38 |
